We go through four molecules from patent US9382230B2, “Methods and compositions for modulating Ire1, SRC and ABL activity” (The Regents of the University of California, priority 2008, dated 2016).

As usually defined, the IC50 is the concentration needed to halve the response being measured.

The structures appear in SMILES notation.

One experiment has as its target human Ire1 (Homo sapiens, UniProt O75460). As to the kind of experiment: In vitro cleavage of 32P-stem-loop RNA by human Ire1. Type of experiment: biochemical. The conditions noted are these: AD series of Ire1 modulators. Here is the method: (§1) RNA cleavage reactions were conducted at 30° C. in buffer containing 20 mM HEPES (pH 7.5), 70 mM NaCl, 2 mM ADP (pH 7.0), 2 mM Mg(OAc)2, 5 mM DTT, 5% glycerol, less than 1 nM ^32p-labeled RNA substrate, and 3 nM-20 μM Ire1. Reaction solutions and buffers were designed using Biochem Lab Solutions 3.5. Reactions were prepared such that 1 μl of RNA was added to 9 μl of pre-warmed reaction mixture containing all components except RNA. Typically, 3-10 minute time courses were collected starting from 5 seconds for the first time point. At time intervals, 1 μl of solution was withdrawn from each reaction and mixed wish 6 μl stop solution containing 10 M urea, 0.1% SDS, 0.1 mM EDTA, 0.05% xylene cyanol, and 0.05% bromophenol blue. The samples were separated by a denaturing 10% PAGE and exposed on a phosphor storage screen. The screens were scanned on a Storm or a Typhoon instrument and quantified using ImageQuant 5.0 or GelQuant.NET 1.4 programs. The data were plotted and fit in SigmaPlot 6.0.
In vitro cleavage of ^32P-stem-loop RNA by human Ire1, with AD series of Ire1 modulators gave the following results: […]

A further experiment has as its target WT Src (Homo sapiens, UniProt P12931). As to the kind of experiment: c-Src kinase cross-reactivity assay. Type of experiment: biochemical. Here is the method: (§2) Assays for cross-reactivity with Src and Abl were also conducted. Purified c-Src or Abl were diluted in kinase reaction buffer (10 mM HEPES (pH 7.2), 10 mM MgCl2, 0.2 mM DTT) to a concentration of approximately 10 nM and pre-incubated with 1 mg/mL BSA, 2.5% (v/v) DMSO, 133 μM peptide (sequence EAIYAAPFKKK for Abl and EIYGEFKKK for c-Src), and varying concentrations of inhibitor. Kinase reactions were initiated by the addition of […] cold ATP supplemented with 5 mCi γ^32P ATP and allowed to proceed at room temperature (RT). At 10 minutes […] of the reactions were spotted onto phosphocellulose sheets (P81, Whatman) and subsequently soaked in was buffer (1.0% (v/v) phosphoric acid). The sheets were washed five times in buffer, dried, and transferred radioactivity was measured by phosphorimaging using a Typhoon™ scanner (Molecular Dynamics). Radioactive counts were quantified using ImageQuant software, and titration data were fit to a sigmoidal dose response to derive IC50 values using the Prism® software package. Dose responses were based on a 12 point inhibitor titration, using ⅓ dilutions starting from […].

The next experiment concerns the target WT Abl (Homo sapiens, UniProt P00519). Briefly: Abl kinase cross-reactivity assay. The format is biochemical. Here is the method:
as §2

A further experiment has as its system Ire1. Briefly: Summary statement of Ire1 activation or inhibition (assay not specified).
Experiment [1] concerns the target T1, yIre1 (Saccharomyces cerevisiae, UniProt P32361).
T1 construct: GST (N); made in house; host or cells: E. coli BL21 CodonPlus (RIPL)
T1 sequence (P32361 with tags, fused parts or gaps limits assumed): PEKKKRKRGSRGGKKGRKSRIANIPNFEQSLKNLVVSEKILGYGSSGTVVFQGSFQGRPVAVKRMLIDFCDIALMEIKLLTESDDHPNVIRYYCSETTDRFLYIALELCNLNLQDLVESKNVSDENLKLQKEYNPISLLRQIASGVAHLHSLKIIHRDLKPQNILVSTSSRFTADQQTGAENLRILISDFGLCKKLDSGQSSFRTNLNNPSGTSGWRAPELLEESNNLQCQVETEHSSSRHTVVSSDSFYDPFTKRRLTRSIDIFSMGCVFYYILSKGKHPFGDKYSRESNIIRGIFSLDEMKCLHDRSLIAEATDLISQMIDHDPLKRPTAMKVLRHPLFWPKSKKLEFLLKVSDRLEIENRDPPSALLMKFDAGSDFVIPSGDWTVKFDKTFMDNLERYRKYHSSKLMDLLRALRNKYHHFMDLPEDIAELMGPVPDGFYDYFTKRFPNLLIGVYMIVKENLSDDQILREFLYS
Briefly: RNA cleavage-based yIre1 activation assay. The conditions noted are these: 3 μM yIre1, stem loop RNA, 15 μM effector. Also noted: unit not given here. The format is biochemical, yeast. Here is the method: The RNase Cleavage Assay.
as §1
RNA cleavage can be used to assess yIre1 activation as shown by FIG. 20 and the table below (3 μM yIre1, stem loop RNA, 15 μM effector): […]

Experiment [2] has as its target T1, yIre1. Briefly: RNA cleavage-based yIre1 inhibition assay with pre-activated purified Ire1. The format is biochemical, yeast. To be noted: 1.5 μM yIre1, 100 μM ADP-2 mM Mg, 30 μM effector (FIG. 21A). Here is the method:
FIGS. 21A and B. A. RNA cleavage-based yIre1 inhibition assay with purified Ire1 under conditions that have pre-activated Ire1. […] Thus, some APY compounds could serve as both Ire1 RNase inhibitors or Ire1 RNase activators, depending on the experimental setting.
as §1, with “RNA cleavage reactions were conducted at 30° C. in buffer containing 20 mM HEPES (pH 7.5), 70 mM NaCl, 2 mM ADP (pH 7.0), 2 mM Mg(OAc)2, 5 mM DTT, 5% glycerol, less than 1 nM ^32p-labeled RNA substrate, and 3 nM-20 μM Ire1.” left out
An RNA cleavage inhibition assay was also performed with exemplary compounds as shown by FIG. 21A (1.5 μM yIre1 mm loop RNA, 100 μM ADP-2 mM Mg, 30 μM effector).

Experiment [3] relates to Xbp-1 mRNA splicing (UPR activation through Ire1) in HEK293 cells. Briefly: XBP-1 mRNA splicing by RT-PCR in HEK293 cells (UPR). The format is cell-based, mammalian. To be noted: Hek293 cells treated for 4 hrs, RT-PCR. As to the method: The effect of tunicamycin, SU11248, DJM2005, APY24, and APY29 on Ire1 activity was tested in mammalian cells using HEK293 cells as a model system. Cells were treated according to the methods described in Lin J H et al., Science 318:944 (2007). After treatment with the corresponding agents for the indicated time, Xbp-1 mRNA splicing was determined by RT-PCR. Unspliced (u) and spliced (s) Xbp1-mRNA products are indicated and serve as a measure of UPR activation through Ire1.
Exemplary compounds were assayed for their effect on UPR. Results are set forth in FIGS. 18-19 and in the table below.

Sequence of WT Abl (P00519 whole entry): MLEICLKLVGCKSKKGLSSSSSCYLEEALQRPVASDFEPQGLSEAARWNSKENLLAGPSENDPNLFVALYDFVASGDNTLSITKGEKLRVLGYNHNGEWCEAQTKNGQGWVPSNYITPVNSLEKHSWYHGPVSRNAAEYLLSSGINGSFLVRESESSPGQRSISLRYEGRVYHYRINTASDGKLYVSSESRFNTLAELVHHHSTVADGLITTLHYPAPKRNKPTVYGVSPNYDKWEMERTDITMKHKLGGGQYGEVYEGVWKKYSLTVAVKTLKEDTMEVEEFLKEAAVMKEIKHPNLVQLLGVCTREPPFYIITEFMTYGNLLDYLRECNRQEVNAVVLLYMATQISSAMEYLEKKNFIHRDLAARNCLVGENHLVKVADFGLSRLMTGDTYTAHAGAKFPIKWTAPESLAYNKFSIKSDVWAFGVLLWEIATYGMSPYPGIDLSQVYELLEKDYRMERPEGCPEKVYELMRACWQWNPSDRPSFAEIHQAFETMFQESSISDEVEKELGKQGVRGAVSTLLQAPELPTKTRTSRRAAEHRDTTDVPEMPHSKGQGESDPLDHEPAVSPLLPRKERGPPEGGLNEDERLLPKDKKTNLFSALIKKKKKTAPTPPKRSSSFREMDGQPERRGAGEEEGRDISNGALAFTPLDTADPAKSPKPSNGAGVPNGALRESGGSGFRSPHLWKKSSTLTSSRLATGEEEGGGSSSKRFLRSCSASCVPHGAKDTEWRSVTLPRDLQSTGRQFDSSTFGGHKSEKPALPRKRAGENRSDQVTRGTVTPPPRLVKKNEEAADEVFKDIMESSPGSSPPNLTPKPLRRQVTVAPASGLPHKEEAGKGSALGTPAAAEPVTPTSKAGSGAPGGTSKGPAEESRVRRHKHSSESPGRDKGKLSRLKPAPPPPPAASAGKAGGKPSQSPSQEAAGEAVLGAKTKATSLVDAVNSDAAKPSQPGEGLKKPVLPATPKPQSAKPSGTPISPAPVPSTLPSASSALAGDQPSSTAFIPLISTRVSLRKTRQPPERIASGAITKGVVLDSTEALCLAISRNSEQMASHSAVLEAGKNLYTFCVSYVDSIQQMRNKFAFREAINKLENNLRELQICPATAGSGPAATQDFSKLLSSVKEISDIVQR
Sequence of human Ire1 (O75460 19-977): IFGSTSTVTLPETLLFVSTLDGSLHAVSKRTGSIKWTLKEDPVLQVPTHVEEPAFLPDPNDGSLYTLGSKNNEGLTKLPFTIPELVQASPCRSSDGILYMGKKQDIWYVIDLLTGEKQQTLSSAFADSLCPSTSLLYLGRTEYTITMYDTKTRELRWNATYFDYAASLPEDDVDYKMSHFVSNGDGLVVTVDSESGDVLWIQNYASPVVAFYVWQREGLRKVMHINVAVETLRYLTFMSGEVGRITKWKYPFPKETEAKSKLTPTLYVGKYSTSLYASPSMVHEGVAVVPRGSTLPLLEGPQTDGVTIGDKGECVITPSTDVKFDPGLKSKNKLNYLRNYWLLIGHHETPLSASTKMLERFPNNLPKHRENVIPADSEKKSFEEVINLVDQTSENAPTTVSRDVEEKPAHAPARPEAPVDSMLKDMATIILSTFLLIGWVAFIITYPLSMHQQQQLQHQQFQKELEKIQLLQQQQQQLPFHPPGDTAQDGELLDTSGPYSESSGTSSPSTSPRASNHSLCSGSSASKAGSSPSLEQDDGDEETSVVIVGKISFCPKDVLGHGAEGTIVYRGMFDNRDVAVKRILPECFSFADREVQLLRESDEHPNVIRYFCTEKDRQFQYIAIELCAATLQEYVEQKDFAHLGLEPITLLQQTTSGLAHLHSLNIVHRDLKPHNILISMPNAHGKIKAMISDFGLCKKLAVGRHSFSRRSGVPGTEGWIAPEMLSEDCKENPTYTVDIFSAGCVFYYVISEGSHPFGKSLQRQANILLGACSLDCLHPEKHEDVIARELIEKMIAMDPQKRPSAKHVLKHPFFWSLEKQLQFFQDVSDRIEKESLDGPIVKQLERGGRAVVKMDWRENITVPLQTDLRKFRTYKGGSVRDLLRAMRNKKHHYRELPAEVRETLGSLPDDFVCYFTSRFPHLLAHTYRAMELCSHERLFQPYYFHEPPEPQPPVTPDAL
Sequence of WT Src (P12931 whole entry): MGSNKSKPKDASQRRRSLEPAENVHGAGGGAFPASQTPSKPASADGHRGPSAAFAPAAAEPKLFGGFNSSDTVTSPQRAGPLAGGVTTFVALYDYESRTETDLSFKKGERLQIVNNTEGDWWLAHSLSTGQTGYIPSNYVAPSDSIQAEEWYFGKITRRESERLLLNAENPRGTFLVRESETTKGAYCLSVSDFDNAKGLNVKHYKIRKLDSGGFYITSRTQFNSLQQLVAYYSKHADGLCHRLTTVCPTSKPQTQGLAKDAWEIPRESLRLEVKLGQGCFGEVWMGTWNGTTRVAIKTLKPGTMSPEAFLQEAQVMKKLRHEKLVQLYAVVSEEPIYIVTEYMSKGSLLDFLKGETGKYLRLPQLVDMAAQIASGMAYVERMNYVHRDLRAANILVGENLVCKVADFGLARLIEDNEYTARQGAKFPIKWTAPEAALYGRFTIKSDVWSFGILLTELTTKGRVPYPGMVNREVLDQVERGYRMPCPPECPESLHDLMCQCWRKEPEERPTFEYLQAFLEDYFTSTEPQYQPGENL

For the molecule `O=C(Nc1ccc(Nc2nccc(Nc3cc(C4CC4)n[nH]3)n2)cc1)Nc1cccc(C(F)(F)F)c1` [AD75, 1-(4-(4-(3-cyclopropyl-1H-pyrazol-5-ylamino)pyrimidin-2-ylamino)phenyl)-3-(3-(trifluoromethyl)phenyl)urea], the “In vitro cleavage of 32P-stem-loop RNA by human Ire1” value (“In vitro cleavage” for short) at human Ire1 is listed as 0.2317. Moreover, the values for the IC50 against WT Src and against WT Abl were 170 nM and 2430 nM, respectively. In the experiment on Ire1, the “activation of Ire1” value is “significant activation”.

Consider `O=C(Nc1cccc(Nc2nccc(Nc3cc(C4CC4)n[nH]3)n2)c1)c1cccc(C(F)(F)F)c1` [AD76, N-(3-(4-(3-cyclopropyl-1H-pyrazol-5-ylamino)pyrimidin-2-ylamino)phenyl)-3-(trifluoromethyl)benzamide], for which the “In vitro cleavage” value at human Ire1 amounted to 0.0139. In addition, the half-inhibitory concentration (IC50) on WT Src is 138 nM; on WT Abl, 4960 nM. For the same molecule, the “activation of Ire1” value in the experiment with Ire1 was “significant activation”.

Turning to `O=C(Nc1cccc(Nc2nccc(Nc3cc(C4CC4)n[nH]3)n2)c1)Nc1cccc(C(F)(F)F)c1` [AD77, 1-(3-(4-(3-cyclopropyl-1H-pyrazol-5-ylamino)pyrimidin-2-ylamino)phenyl)-3-(3-(trifluoromethyl)phenyl)urea], the “In vitro cleavage” value on human Ire1 is listed as 0.0239. For the same molecule, the values for the half-inhibitory concentration (IC50) against WT Src and against WT Abl were 442 nM and 36800 nM, respectively. The “activation of Ire1” value with Ire1 was “significant activation”.

Turning to `Cc1cc(Nc2cc(C3CCCCC3)n[nH]2)nc(Nc2ccc(CC#N)cc2)n1` [APY81], at yIre1 [1], the “RNA cleavage (yIre1 activation)” value was determined as 0.001872. For the same molecule, at yIre1 [2], the “inhibition of Ire1 RNase” value is “inhibit Ire1”. The results for the “% splicing mRNA XBP-I Average” value in experiment [3] (Tm 0.3 ug/ml + compound 2 μM), in experiment [3] (compound 2 μM) and in experiment [3] (compound 10 μM) were 7%, 11% and 16%, respectively. In addition, the “inhibition of Ire1” value with Ire1 is reported as “significant inhibition”.
